The values below come from US20250034099A1, “BENZOXAZINONE DERIVATIVES” (CHIA TAI TIANQING PHARMACEUTICAL GROUP CO., LTD., priority 2021, published 2025).

Test system in one data set: not listed separately
Kind of data set: Pharmacokinetic evaluation in rats after IV and PO administration. It is filed as in vivo. The conditions noted are these: rat, plasma; male SD rats, IV (1 mg/kg), PO (10 mg/kg); read-out: Bioavailability F (%). As for the experimental part: SD rats (male, 7-9 weeks old, Beijing Vital River Laboratory Animal Technology Co., Ltd.)
Pharmacokinetic characteristics of the compounds after intravenous injection (IV) and oral administration (PO) in rodents were tested by a standard scheme. The rats were subjected to intravenous injection and oral administration once in the experiment. […]. The vehicle for the intravenous injection was a clear solution of 80% polyethylene glycol 400/20% water, and the vehicle for the oral administration was a homogeneous suspension of 99.9% (0.5% HPMC:Solutol HS15=95:5)/0.1% Tween 80. Four male SD rats were used in this project. Two rats were subjected to intravenous injection, and plasma samples were collected at 0 h (before administration) and 0.083, 0.25, 0.5, 1, 2, 4, 8 and 24 h (after administration); the other two rats were subjected to oral intragastric administration, and plasma samples were collected at 0 h (before administration) and 0.25, 0.5, 1, 2, 4, 8, and 24 h (after administration). Whole blood samples within 24 h were collected. All blood samples were immediately transferred to labeled commercial centrifuge tubes containing K2-EDTA. After blood sample collection, the plasma supernatant was taken by centrifugation at 3200 g at 4° C. for 10 min, immediately placed in dry ice, and then stored at −60° C. or a lower temperature for LC-MS/MS analysis. Plasma concentration-time data were analyzed by a non-compartmental model using a WinNonlin software package (Version 6.3 and above), and pharmacokinetic parameters such as peak concentration (Cmax), clearance (CL), tissue distribution (Vdss), area under plasma concentration-time curve (AUC0-last), bioavailability (F) and the like were calculated.
Consider `Cc1c(CN2c3c(F)cc(F)cc3OCC2CC(N)=O)ccc2c1NC(=O)CO2` (single isomer, unassigned) [Compound 42a], for which the bioavailability was 34.6%.

The same data set, now with this note: rat, plasma; male SD rats, IV (1 mg/kg), PO (100 mg/kg); read-out: Bioavailability F (%).
Take `Cc1noc(C[C@H]2COc3cc(F)ccc3N2Cc2ccc3c(c2C)NC(=O)CO3)n1` [Compound 36]: the bioavailability amounted to 64.9%.
As for `Cc1c(CN2c3ccc(F)cc3OC[C@@H]2Cc2nnn(C)n2)ccc2c1NC(=O)CO2` [Compound 37], the bioavailability is 142%.

Still in this data set, the particulars now being: rat, plasma; male SD rats, IV (1 mg/kg); read-out: Clearance CL.
As to `Cc1c(CN2c3c(F)cc(F)cc3OCC2CC(N)=O)ccc2c1NC(=O)CO2` (single isomer, unassigned) [Compound 42a], the clearance was 24.4 mL/min/kg.
For the molecule `Cc1noc(C[C@H]2COc3cc(F)ccc3N2Cc2ccc3c(c2C)NC(=O)CO3)n1` [Compound 36], the clearance came to 82.6 mL/min/kg.
Still for that read-out and setting: under `Cc1c(CN2c3ccc(F)cc3OC[C@@H]2Cc2nnn(C)n2)ccc2c1NC(=O)CO2` [Compound 37] stands 47.9 mL/min/kg.

The data set is the same for the next values; noted with them: rat, plasma; male SD rats, IV (1 mg/kg); read-out: Tissue distribution Vdss.
Consider `Cc1c(CN2c3c(F)cc(F)cc3OCC2CC(N)=O)ccc2c1NC(=O)CO2` (single isomer, unassigned) [Compound 42a], for which the Vd is 1.57 L/kg.
Take `Cc1noc(C[C@H]2COc3cc(F)ccc3N2Cc2ccc3c(c2C)NC(=O)CO3)n1` [Compound 36]: the Vd was 6.96 L/kg.
Still for that read-out and setting: under `Cc1c(CN2c3ccc(F)cc3OC[C@@H]2Cc2nnn(C)n2)ccc2c1NC(=O)CO2` [Compound 37] stands 4.75 L/kg.

Still in this data set, the particulars now being: rat, plasma; male SD rats, PO (10 mg/kg); read-out: Area under plasma concentration-time curve AUC0-last PO.
In the case of `Cc1c(CN2c3c(F)cc(F)cc3OCC2CC(N)=O)ccc2c1NC(=O)CO2` (single isomer, unassigned) [Compound 42a], the AUC(0-t) turned out to be 5.93 µM·h.

Still in this data set, the particulars now being: rat, plasma; male SD rats, PO (10 mg/kg); read-out: Peak concentration Cmax.
Turning to `Cc1c(CN2c3c(F)cc(F)cc3OCC2CC(N)=O)ccc2c1NC(=O)CO2` (single isomer, unassigned) [Compound 42a], the Cmax was determined as 2.74 µM.

Still in this data set, the particulars now being: rat, plasma; male SD rats, PO (100 mg/kg); read-out: Area under plasma concentration-time curve AUC0-last PO.
Turning to `Cc1noc(C[C@H]2COc3cc(F)ccc3N2Cc2ccc3c(c2C)NC(=O)CO3)n1` [Compound 36], the AUC(0-t) was 29.9 µM·h.
As for `Cc1c(CN2c3ccc(F)cc3OC[C@@H]2Cc2nnn(C)n2)ccc2c1NC(=O)CO2` [Compound 37], the AUC(0-t) was determined as 116 µM·h.

The same data set, now with this note: rat, plasma; male SD rats, PO (100 mg/kg); read-out: Peak concentration Cmax.
On to `Cc1noc(C[C@H]2COc3cc(F)ccc3N2Cc2ccc3c(c2C)NC(=O)CO3)n1` [Compound 36], for which the Cmax was found to be 5.62 µM.
In the case of `Cc1c(CN2c3ccc(F)cc3OC[C@@H]2Cc2nnn(C)n2)ccc2c1NC(=O)CO2` [Compound 37], the Cmax was 18.9 µM.

The next data set concerns the target T1, MR (Homo sapiens, UniProt P08235).
T1 sequence (P08235 726-984 limits assumed): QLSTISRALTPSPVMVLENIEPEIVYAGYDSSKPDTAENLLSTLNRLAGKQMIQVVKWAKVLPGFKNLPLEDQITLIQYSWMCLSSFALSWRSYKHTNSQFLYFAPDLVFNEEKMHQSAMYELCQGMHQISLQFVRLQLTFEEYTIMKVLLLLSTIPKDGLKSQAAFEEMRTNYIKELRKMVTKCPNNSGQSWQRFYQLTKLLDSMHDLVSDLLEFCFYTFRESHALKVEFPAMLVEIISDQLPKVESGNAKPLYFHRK
Kind of data set: In vitro evaluation of MR antagonistic activity (HEK293/Gal4/MR cell line, Bright Glo). In kind it is cell-based. Particulars: HEK293/Gal4/MR cells, aldosterone final 1 nmol, 24 h incubation. The method, then:
Purpose of Experiment: to assay the MR antagonistic activity of the compounds
A DMEM medium purchased from BI; fetal bovine serum purchased from Biosera; an HEK293/Gal4/MR cell line provided by Wuhan Heyan Biomedical Technology Co., Ltd.; Bright Glo purchased from Promega; and an EnVision multi-marker analyzer (PerkinElmer).
MR cells were seeded in a white 96-well plate, with […] of cell suspension containing 40000 cells added to each well. The cell plate was incubated in a CO2 incubator overnight.
The compounds to be tested were serially 5-fold diluted to the 8th concentration point with a multi-channel pipette, and the compound concentration ranged from 2 mmol to […]. 38 μL of the medium was added to an intermediate plate, and the compound was added to corresponding wells of the intermediate plate at 2 μL/well. After well mixing, the compound solution was transferred to the cell plate at 10 μL/well, and the cell plate was incubated in a CO2 incubator for 1 h. Aldosterone was diluted to 10 nmol with a medium, i.e., 20 μL of aldosterone with a concentration of 1 μmol was added to 1980 μL of the medium. After well mixing, 10 μL of the aldosterone solution was added to each well of the cell plate except the positive control wells. The cell plate was incubated in a CO2 incubator for 24 h. The final concentration of the compound ranged from 10 μmol to 0.128 nmol, and the final concentration of aldosterone was 1 nmol. After the incubation was completed, the cell supernatant was discarded, and the Bright Glo reagent was added to the cell plate at 100 μL/well. Readings were taken immediately on the EnVision multi-marker analyzer.
The original data were converted to inhibition rates using the following equation: % inhibition=((RFUcmpd−AVER(RFUNeg.Ctrl))/((AVER(RFUPos.Ctrl)−AVER(RFUNeg.Ctrl))×100%. Compound curves were fitted by log(inhibitor) vs. response-Variable slope of Graphpad Prism 5. IC50 values were calculated by the software using the following formula: Y=Bottom+(Top−Bottom)/(1+10^((Log IC50−X)×HillSlope)).
Molecule `CNC(=O)CC1COc2cc(F)cc(F)c2N1Cc1cc(C)c2c(c1)NC(=O)CO2` (single isomer, unassigned) [Compound 8a] had an IC50 of 130 nM. That is a sub-micromolar value.
`Cc1noc(CC2COc3cc(F)ccc3N2C(C)c2ccc3c(c2)NC(=O)CO3)n1` (single isomer, unassigned) [Compound 35a] had an IC50 of 251 nM.
Regarding `Cc1noc(CC2COc3cc(F)ccc3N2C(C)c2ccc3c(c2)NC(=O)CO3)n1` (single isomer, unassigned) [Compound 35b], it took 76.6 nM to reach half-maximal inhibition (IC50).
Consider `Cc1c(CN2c3c(F)cc(F)cc3OCC2CC(N)=O)ccc2c1NC(=O)CO2` (single isomer, unassigned) [Compound 42a], for which the IC50 amounted to 29.1 nM.
Turning to `NC(=O)CC1COc2cc(F)cc(F)c2N1Cc1ccc2c(c1Cl)NC(=O)CO2` (single isomer, unassigned) [Compound 43a], half-maximal inhibition (IC50) was put at 18 nM.
Turning to `CNC(=O)CC1COc2cc(F)ccc2N1Cc1cc(Cl)c2c(c1)NC(=O)CO2` (stereo not shown) [Compound 4], the IC50 worked out at 289 nM. Compared with the last molecule, the IC50 is about 16-fold higher.
The same measure, in the same setting: under `CNC(=O)CC1COc2cc(F)cc(F)c2N1Cc1ccc2c(c1)NC(=O)CO2` (stereo not shown) [Compound 5] stands 325 nM; under `CNC(=O)CC1COc2cc(F)ccc2N1C(C)c1ccc2c(c1)NC(=O)CO2` (stereo not shown) [Compound 6], 273 nM.
For the molecule `CS(=O)(=O)CC1COc2cc(F)ccc2N1Cc1ccc2c(c1)NC(=O)CO2` (stereo not shown) [Compound 7], the IC50 is 519 nM. This IC50 is about 1.9-fold higher than that of the molecule before.
`CCNC(=O)C[C@H]1COc2cc(F)ccc2N1Cc1ccc2c(c1)NC(=O)CO2` [Compound 9] returned an IC50 of 403 nM. The IC50 values of the last two molecules are within 1.5-fold of each other.
As for `Cc1noc(C[C@H]2COc3cc(F)ccc3N2Cc2cc(Cl)c3c(c2)NC(=O)CO3)n1` [Compound 10], the IC50 is 15 nM.
As for `Cc1noc(C[C@H]2COc3cc(F)ccc3N2Cc2ccc3c(c2)NC(=O)CO3)n1` [Compound 12], the IC50 stood at 27 nM.
In the case of `Cc1nnn(C[C@H]2COc3cc(F)ccc3N2Cc2ccc3c(c2)NC(=O)CO3)n1` [Compound 14], half-maximal inhibition (IC50) required 78 nM. Compared with the last molecule, the IC50 is about 2.9-fold higher.
As to `O=C1COc2ccc(CN3c4ccc(F)cc4OC[C@@H]3Cc3nc(CO)no3)cc2N1` [Compound 15], half-maximal inhibition (IC50) was put at 107 nM.
Still for that read-out and setting: under `Cc1noc(C[C@H]2COc3cc(F)ccc3N2Cc2cc(F)c3c(c2)NC(=O)CO3)n1` [Compound 18] stands 62 nM; under `Cc1noc(C[C@H]2COc3cc(F)ccc3N2Cc2cc3c(cc2F)OCC(=O)N3)n1` [Compound 19], 66 nM.
Take `O=C1COc2cc(F)c(CN3c4ccc(F)cc4OC[C@@H]3Cn3nccn3)cc2N1` [Compound 20]: the IC50 turned out to be 27 nM.
`O=C1COc2ccc(CN3c4ccc(F)cc4OC[C@@H]3Cn3nccn3)cc2N1` [Compound 21] returned an IC50 of 50 nM.
Still for that read-out and setting: under `Cc1noc(C[C@H]2COc3cc(F)ccc3N2Cc2ccc3c(c2F)NC(=O)CO3)n1` [Compound 22] stands 9 nM; under `[2H]C([2H])(c1ccc2c(c1)NC(=O)CO2)N1c2ccc(F)cc2OC[C@@H]1Cc1nc(C)no1` [Compound 23], 29 nM.
In turn, `Cc1nnn(C[C@H]2COc3cc(F)ccc3N2Cc2cc3c(cc2F)OCC(=O)N3)n1` [Compound 24] yielded an IC50 of 32 nM. The IC50 values of the last two molecules are within 1.5-fold of each other.
Turning to `Cc1nc(C[C@H]2COc3cc(F)ccc3N2Cc2cc(Cl)c3c(c2)NC(=O)CO3)no1` [Compound 25], the IC50 is 72 nM.
For `Cn1nnc(C[C@H]2COc3cc(F)ccc3N2Cc2cc(Cl)c3c(c2)NC(=O)CO3)n1` [Compound 26], the midpoint of inhibition, the IC50, lay at 32 nM.
In turn, `Cn1nnc(C[C@H]2COc3cc(F)ccc3N2Cc2ccc3c(c2)NC(=O)CO3)n1` [Compound 27] displayed an IC50 of 80 nM.
In turn, `[2H]C([2H])([2H])c1noc(C[C@H]2COc3cc(F)ccc3N2Cc2ccc3c(c2)NC(=O)CO3)n1` [Compound 28] registered an IC50 of 35 nM.
On the same count and under the same terms, under `[2H]C([2H])([2H])c1noc(C[C@H]2COc3cc(F)ccc3N2Cc2cc3c(cc2F)OCC(=O)N3)n1` [Compound 29] stands 22 nM; under `Cn1nnc(C[C@H]2COc3cc(F)ccc3N2Cc2cc3c(cc2F)OCC(=O)N3)n1` [Compound 30], 68 nM; under `O=C1COc2ccc(CN3c4ccc(F)cc4OC[C@@H]3Cc3c[nH]nn3)c(F)c2N1` [Compound 32], 50.8 nM.
The molecule `Cn1nnc(C[C@H]2COc3cc(F)ccc3N2Cc2ccc3c(c2F)NC(=O)CO3)n1` [Compound 33] displayed an IC50 of 11 nM. This IC50 is about 4.6-fold lower than that of the molecule before.
For `[2H]C([2H])([2H])n1nnc(C[C@H]2COc3cc(F)ccc3N2Cc2ccc3c(c2)NC(=O)CO3)n1` [Compound 34], inhibition was half-maximal at 130 nM (IC50).
For the molecule `Cc1noc(C[C@H]2COc3cc(F)ccc3N2Cc2ccc3c(c2C)NC(=O)CO3)n1` [Compound 36], the IC50 came to 13.7 nM.
The molecule `Cc1c(CN2c3ccc(F)cc3OC[C@@H]2Cc2nnn(C)n2)ccc2c1NC(=O)CO2` [Compound 37] yielded an IC50 of 43.9 nM.
The same measure, in the same setting: under `Cn1nnc(C[C@H]2COc3cc(F)ccc3N2Cc2ccc3c(c2Cl)NC(=O)CO3)n1` [Compound 38] stands 22.6 nM.

The test system of the next data set is nuclear receptor.
Experiment: not given
Particulars: background statement; cited from earlier work.
As to `CC(=O)S[C@@H]1CC2=CC(=O)CC[C@]2(C)[C@H]2CC[C@@]3(C)[C@@H](CC[C@@]34CCC(=O)O4)[C@H]12` [spironolactone], the nuclear receptor selectivity result was “poor”.
